The values below are quoted from earlier work in PMC9199201, “Biomimetic and temporal-controlled nanocarriers with ileum transporter targeting for achieving oral administration of chemotherapeutic drugs” (Journal of Nanobiotechnology, 2022).

On the set-up of this data set: method as in PMID 23220325.

As for `CC(=O)O[C@H]1C(=O)[C@@]2(C)[C@H]([C@H](OC(=O)c3ccccc3)[C@]3(O)C[C@H](OC(=O)[C@H](O)[C@@H](NC(=O)c4ccccc4)c4ccccc4)C(C)=C1C3(C)C)[C@]1(OC(C)=O)CO[C@@H]1C[C@@H]2O` [PTX, paclitaxel], the Oral bioavailability entry was “less than 1%”.
